The target in data set [1] is 5-hydroxytryptamine receptor 7 (Homo sapiens, UniProt P34969).
Data set [2] deals with T1, 5-hydroxytryptamine receptor 1A (Homo sapiens, UniProt P08908).
T1 sequence (P08908 whole entry): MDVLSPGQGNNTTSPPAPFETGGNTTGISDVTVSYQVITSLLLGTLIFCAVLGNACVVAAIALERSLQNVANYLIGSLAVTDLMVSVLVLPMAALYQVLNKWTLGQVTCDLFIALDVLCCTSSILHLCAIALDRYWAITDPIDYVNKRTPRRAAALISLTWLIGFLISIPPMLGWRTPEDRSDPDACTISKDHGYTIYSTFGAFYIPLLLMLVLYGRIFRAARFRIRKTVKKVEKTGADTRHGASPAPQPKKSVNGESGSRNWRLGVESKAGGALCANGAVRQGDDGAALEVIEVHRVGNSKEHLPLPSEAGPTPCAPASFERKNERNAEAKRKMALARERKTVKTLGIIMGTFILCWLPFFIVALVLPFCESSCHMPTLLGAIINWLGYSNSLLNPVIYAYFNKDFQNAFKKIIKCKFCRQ

In data set [3] the target is Sodium-dependent serotonin transporter (Homo sapiens, UniProt P31645). Type of data set: cell-based, HEK293.
Data set [4] addresses Voltage-gated inwardly rectifying potassium channel KCNH2 (Homo sapiens, UniProt Q12809).
The nature of data set [5]: in vitro. Particulars: human, liver microsomes.
Data set [6] is described as follows: in vitro. The note with it: mouse, liver microsomes. In general terms: Liver microsomes are vesicles of endoplasmic reticulum, rich in cytochrome P450 enzymes.
Data set [7] deals with hERG (KCNH2) (Homo sapiens, UniProt Q12809). The data set is described as follows: in vitro. Particulars: HEK293 cells that express hERG. Background: hERG is a cardiac potassium channel; its block is linked to QT prolongation.

The record followed here is ChEMBL document CHEMBL5584220, “Design, synthesis, and biological evaluation of aralkyl piperazine and piperidine derivatives targeting SSRI/5-HT1A/5-HT7” (Bioorg Med Chem, 2024).

SMILES strings stand for the structures. Bounds are passed on as bounds.

Chain of 5-hydroxytryptamine receptor 7 (P34969 whole entry): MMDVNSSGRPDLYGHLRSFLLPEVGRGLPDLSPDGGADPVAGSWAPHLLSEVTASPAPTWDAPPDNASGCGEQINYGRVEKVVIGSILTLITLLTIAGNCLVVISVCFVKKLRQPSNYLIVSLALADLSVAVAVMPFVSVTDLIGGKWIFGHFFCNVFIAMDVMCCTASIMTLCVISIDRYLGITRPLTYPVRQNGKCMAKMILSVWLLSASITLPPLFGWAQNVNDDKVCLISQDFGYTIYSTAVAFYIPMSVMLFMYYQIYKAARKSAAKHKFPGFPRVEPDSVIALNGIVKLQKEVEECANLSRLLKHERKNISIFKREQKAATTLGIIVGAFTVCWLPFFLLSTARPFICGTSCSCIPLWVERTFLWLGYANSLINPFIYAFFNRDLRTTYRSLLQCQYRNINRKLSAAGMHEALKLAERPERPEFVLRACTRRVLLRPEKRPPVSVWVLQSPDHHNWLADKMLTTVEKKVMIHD
Chain of hERG (KCNH2) (Q12809 whole entry): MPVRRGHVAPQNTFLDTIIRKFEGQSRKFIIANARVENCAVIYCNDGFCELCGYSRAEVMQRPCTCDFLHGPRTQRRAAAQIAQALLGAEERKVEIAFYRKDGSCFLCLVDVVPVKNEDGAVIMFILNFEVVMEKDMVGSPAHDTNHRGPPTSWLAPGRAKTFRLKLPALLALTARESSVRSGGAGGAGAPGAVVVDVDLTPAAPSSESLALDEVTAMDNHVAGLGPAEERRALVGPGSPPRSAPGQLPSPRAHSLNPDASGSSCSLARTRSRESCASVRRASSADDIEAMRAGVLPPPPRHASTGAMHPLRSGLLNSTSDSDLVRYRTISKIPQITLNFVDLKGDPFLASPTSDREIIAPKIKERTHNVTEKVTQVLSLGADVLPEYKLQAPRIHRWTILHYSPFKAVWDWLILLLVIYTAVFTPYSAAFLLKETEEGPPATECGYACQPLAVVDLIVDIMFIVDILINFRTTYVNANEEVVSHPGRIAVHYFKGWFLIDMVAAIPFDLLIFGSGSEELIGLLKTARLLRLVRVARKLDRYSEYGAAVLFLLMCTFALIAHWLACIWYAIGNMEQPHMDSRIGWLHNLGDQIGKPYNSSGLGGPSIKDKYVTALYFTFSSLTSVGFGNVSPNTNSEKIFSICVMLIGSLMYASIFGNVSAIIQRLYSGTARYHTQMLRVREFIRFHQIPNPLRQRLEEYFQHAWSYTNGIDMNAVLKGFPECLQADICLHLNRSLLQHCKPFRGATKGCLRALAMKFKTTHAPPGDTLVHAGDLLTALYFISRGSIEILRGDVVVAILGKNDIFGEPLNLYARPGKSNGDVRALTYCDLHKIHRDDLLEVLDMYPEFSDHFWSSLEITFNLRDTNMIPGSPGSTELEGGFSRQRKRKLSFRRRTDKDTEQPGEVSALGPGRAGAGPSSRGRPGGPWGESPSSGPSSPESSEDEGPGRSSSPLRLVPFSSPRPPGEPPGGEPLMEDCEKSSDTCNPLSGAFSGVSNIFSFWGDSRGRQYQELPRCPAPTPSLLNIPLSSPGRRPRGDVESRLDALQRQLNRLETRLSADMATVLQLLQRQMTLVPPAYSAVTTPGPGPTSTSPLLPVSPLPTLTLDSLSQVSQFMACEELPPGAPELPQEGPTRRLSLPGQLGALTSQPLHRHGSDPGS
Chain of Voltage-gated inwardly rectifying potassium channel KCNH2 (Q12809 whole entry): as above
Chain of Sodium-dependent serotonin transporter (P31645 whole entry): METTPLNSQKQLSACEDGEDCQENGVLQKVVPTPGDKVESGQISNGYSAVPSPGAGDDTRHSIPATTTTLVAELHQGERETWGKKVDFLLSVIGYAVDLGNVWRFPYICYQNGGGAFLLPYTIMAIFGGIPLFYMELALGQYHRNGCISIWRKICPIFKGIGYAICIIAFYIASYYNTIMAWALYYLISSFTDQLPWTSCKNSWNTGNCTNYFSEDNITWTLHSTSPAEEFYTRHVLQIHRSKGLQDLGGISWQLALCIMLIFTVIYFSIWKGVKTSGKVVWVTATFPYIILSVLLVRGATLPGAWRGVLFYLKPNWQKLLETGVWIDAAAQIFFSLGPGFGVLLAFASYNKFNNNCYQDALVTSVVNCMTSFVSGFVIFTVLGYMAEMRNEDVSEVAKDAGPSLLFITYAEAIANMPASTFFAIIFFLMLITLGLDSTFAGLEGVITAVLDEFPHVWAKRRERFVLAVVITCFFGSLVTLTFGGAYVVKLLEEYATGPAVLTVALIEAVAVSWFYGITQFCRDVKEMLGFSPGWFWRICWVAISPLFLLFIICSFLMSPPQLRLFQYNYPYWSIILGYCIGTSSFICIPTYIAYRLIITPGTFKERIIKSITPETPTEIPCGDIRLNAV

One may read the Ki as the dissociation constant of the complex between target and ligand, obtained from inhibition or displacement. Read a high Ki as lower affinity. As for `COc1ccccc1N1CCN(CCCCCC(=O)NC2CCCc3ccccc32)CC1` (centres undefined), the Ki in data set [1] was found to be 8.6 nM; in data set [2] it was 6.64 nM.

`CSc1ccccc1N1CCN(CCCCCC(=O)NC2CCCc3ccccc32)CC1` (centres undefined): the Ki in data set [1] worked out at 52.7 nM; in data set [2] it was 0.22 nM.

With `CCOc1ccccc1N1CCN(CCCCCn2cnc3sc(C)c(C)c3c2=O)CC1`, the values for the Ki in data set [1] and in data set [2] were 1.03 nM and 2.99 nM, respectively.

By IC50 is commonly meant the concentration that inhibits the measured activity by half. A low value points to greater potency in that assay. For orientation: microsomal CLint means the capacity of the preparation to metabolise the compound, expressed as a volume cleared per time. Lower therefore signals slow turnover. Turning to `Fc1ccc(C2CCN(CCCc3c[nH]c4ccc(F)cc34)CC2)c(-c2ccccc2)c1`, the Ki in data set [1] worked out at 26.8 nM; in data set [2] it was 5.7 nM. The results for the IC50 in data set [3] and in data set [4] were 251 nM and 160 nM, respectively. The compound also yielded a microsomal CLint at 1 µM in data set [5] of 27.8 µL/min/mg.

For orientation: inhibition means how much of the control response was suppressed. Low readings indicate a weak effect, high ones a strong effect. As for `CSc1ccccc1N1CCN(CCCCc2c[nH]c3ccc(F)cc23)CC1`, the values for the microsomal CLint at 1 µM in data set [6] and in data set [5] were 156 µL/min/mg and 27.8 µL/min/mg, respectively. In addition, the inhibition at 1 µM in data set [7] came out at 82.7%.

Consider `CSc1ccccc1C1CCN(CCCc2c[nH]c3ccc(F)cc23)CC1`, for which the intrinsic clearance (microsomal CLint) at 1 µM worked out at 62.3 µL/min/mg in data set [6] and 24.5 µL/min/mg in data set [5]. For the same compound, the inhibition at 1 µM in data set [7] was 96.6%.

Consider `Fc1ccc(C2=CCN(CCCc3c[nH]c4ccc(F)cc34)CC2)c(-c2ccccc2)c1`, for which the values for the microsomal CLint at 1 µM in data set [6] and in data set [5] were 202 µL/min/mg and 22.1 µL/min/mg, respectively. In data set [7], this compound had an inhibition at 1 µM of 82.6%.

Consider `CSc1ccccc1N1CCN(CCCCCc2c[nH]c3ccc(F)cc23)CC1`, for which the microsomal CLint at 1 µM in data set [6] was 83.2 µL/min/mg; in data set [5] it was 90.1 µL/min/mg. In data set [7], this compound had an inhibition at 1 µM of 84.5%.

In the case of `CCSc1ccccc1N1CCN(CCCc2c[nH]c3ccc(F)cc23)CC1`, the microsomal CLint at 1 µM in data set [6] was 47.6 µL/min/mg; in data set [5], 39.5 µL/min/mg. Besides, in data set [7], the inhibition at 1 µM came out at 90.1%.

Compound `NC(=O)c1ccc2[nH]cc(CCCN3CCC(c4ccc(F)cc4-c4ccccc4)CC3)c2c1` showed an IC50 in data set [3] of more than 10000 nM. Also, the Ki in data set [2] is less than 0.04 nM.

Take `CCOc1ccccc1N1CCN(CCCc2c[nH]c3ccc(F)cc23)CC1`: the IC50 in data set [3] worked out at 0.85 nM; in data set [4], 160 nM.

In data set [4], `OC(CCN1CCC(c2ccc(F)cc2-c2ccccc2)CC1)c1c[nH]c2ccc(F)cc12` (centres undefined) gave a half-maximal inhibitory concentration (IC50) of 530 nM.

Take `COc1ccccc1N1CCN(CCCc2c[nH]c3ccc(F)cc23)CC1`: the IC50 in data set [3] came out at 0.85 nM; in data set [4], 310 nM.

`CSc1ccccc1N1CCN(CCCc2c[nH]c3ccc(F)cc23)CC1`: the figures for the IC50 in data set [3] and in data set [4] were 1.9 nM and 390 nM, respectively.

For the compound `CSc1ccccc1N1CCN(CCCc2c[nH]c3ccc(C#N)cc23)CC1`, the microsomal CLint at 1 µM in data set [6] was 208 µL/min/mg; in data set [5] it was 127 µL/min/mg. For the same compound, in data set [7], testing at 1 µM gave an inhibition of 97.6%.

Turning to `COc1ccc2c(c1)[C@]13CCCC[C@@H]1[C@H](C2)N(C)CC3` [DEXTROMETHORPHAN], the microsomal CLint at 1 µM in data set [5] was 28 µL/min/mg.
